The source made the active and inactive calls. The calls are words filed in the database; no cut-off is given here.
Key:
[1] = Cytotoxicity against human MRC5 cells assessed as reduction in cell viability incubated for 6 days by Hoechst 33342 staining based microscopic analysis; conditions: time 6 day
Human betaherpesvirus 5 [2] = assay: Antiviral activity against Human Cytomegalovirus infected in human MRC5 cells assessed as reduction in infection rate incubated for 6 days by Hoechst 33342 staining based microscopic analysis; format: functional, cell-based
Human betaherpesvirus 5 [3] = assay: Antiviral activity against human Cytomegalovirus infected in human ARPE-19 cells assessed as reduction in infection rate incubated for 10 days by Hoechst 33342 staining based microscopic analysis; format: functional, cell-based
[4] = Selectivity index, ratio of CC50 for human MRC5 cells to IC50 for human Cytomegalovirus infected in human MRC5 cells incubated for 6 days; format: toxicity, cell-based; conditions: time 6 day, read-out: Ratio CC50/IC50
[5] = Selectivity index, ratio of CC50 for human MRC5 cells to IC50 for human Cytomegalovirus infected in human ARPE-19 cells incubated for 10 days; format: toxicity, cell-based; conditions: time 6 day, read-out: Ratio CC50/IC50
Human betaherpesvirus 5 [6] = assay: Antiviral activity against human Cytomegalovirus infected in human ARPE-19 cells assessed as reduction in infection rate incubated for 12 days by Hoechst 33342 staining based microscopic analysis; format: functional, cell-based; conditions: Human betaherpesvirus 5, ARPE-19, 288 h
[7] = Selectivity index, ratio of CC50 for human MRC5 cells to IC50 for human Cytomegalovirus infected in human ARPE-19 cells incubated for 12 days; format: toxicity, cell-based; conditions: time 6 day, read-out: Ratio CC50/IC50
[8] = Cytotoxicity against human ARPE-19 cells assessed as reduction in cell viability incubated for 6 days by Hoechst 33342 staining based microscopic analysis; conditions: time 6 day
Human betaherpesvirus 5 [9] = assay: Antiviral activity against human Cytomegalovirus infected in human ARPE-19 cells assessed as reduction in infection rate incubated for 6 days by Hoechst 33342 staining based microscopic analysis; format: functional, cell-based
Human betaherpesvirus 5 [10] = assay: Antiviral activity against human Cytomegalovirus harboring ANCHOR infected in human MRC5 cells assessed as reduction in infection rate at 0.15 to 0.625 uM incubated for 6 days by Hoechst 33342 staining based microscopic analysis relative to control; format: functional, cell-based; conditions: dose microM 0.625-0.15, time 6.0 day
Human betaherpesvirus 5 [11] = assay: Antiviral activity against human Cytomegalovirus harboring ANCHOR infected in ARPE-19 cells assessed as reduction in replication by measuring UL44 expression at 0.6 to 0.15 uM by immunofluorescence B31assay; format: functional, cell-based; conditions: dose microM 0.625-0.15, time 10.0 day
Human betaherpesvirus 5 [12] = assay: Antiviral activity against human Cytomegalovirus infected in human MRC5 cells assessed as reduction in viral replication incubated for 6 days by Hoechst 33342 staining based microscopic analysis; format: functional, cell-based; conditions: Human betaherpesvirus 5, MRC5, 144 h
Human betaherpesvirus 5 [13] = assay: Antiviral activity against human Cytomegalovirus infected in human ARPE-19 cells assessed as reduction in viral replication incubated for 13 days by Hoechst 33342 staining based microscopic analysis; format: functional, cell-based; conditions: Human betaherpesvirus 5, ARPE-19, 312 h
[14] = Selectivity index, ratio of CC50 for human MRC5 cells to IC50 for human Cytomegalovirus infected in human ARPE-19 cells incubated for 13 days; format: toxicity, cell-based; conditions: time 6 day, read-out: Ratio CC50/IC50
Human betaherpesvirus 5 [15] = assay: Antiviral activity against human Cytomegalovirus harboring ANCHOR infected in human MRC5 cells assessed as reduction in infection rate at 2.5 to 5 uM incubated for 6 days by Hoechst 33342 staining based microscopic analysis; format: functional, cell-based; conditions: dose microM 2.5-5, time 6.0 day
Human betaherpesvirus 5 [16] = assay: Antiviral activity against human Cytomegalovirus harboring ANCHOR infected in human ARPE-19 cells assessed as reduction in infection rate at 1.25 to 2.5 uM incubated for 10 days by Hoechst 33342 staining based microscopic analysis; format: functional, cell-based; conditions: dose microM 1.25-2.5, time 10.0 day
[17] = Drug uptake in rabbit RK13 cells incubated for 24 hrs by Hoechst staining based microscopic analysis; format: ADME, cell-based, Oryctolagus cuniculus; conditions: rk13, 24 h
[18] = Human betaherpesvirus 5, MRC5, 144 h, read-out: IC50
[19] = Human betaherpesvirus 5, ARPE-19, 240 h, read-out: IC50
[20] = Human betaherpesvirus 5, ARPE-19, 144 h, read-out: IC50

| SMILES | CC50 at 144 h [1] | IC50 (Human betaherpesvirus 5 [2]; [18]) | selectivity ratio at 144 h [4] | IC50 (Human betaherpesvirus 5 [2]; mrc5) | CC50 at 144 h [8] | IC50 (Human betaherpesvirus 5 [9]; arpe-19) | other results |
| --- | --- | --- | --- | --- | --- | --- | --- |
| CN(C)c1c(F)c(F)c(-c2c3ccc([nH]3)c(-c3c(F)c(F)cc(F)c3F)c3nc(c4ccc([nH]4)c(-c4c(F)c(F)cc(F)c4F)c4ccc2[nH]4)C=C3)c(F)c1F | > 50 µM | 2.11 µM | > 23.6 |  |  |  | IC50 (Human betaherpesvirus 5 [3]; arpe-19): Not Active |
| CN(C)c1c(F)c(F)c(-c2c3nc(c4ccc([nH]4)c(-c4c(F)c(F)c(N(C)C)c(F)c4F)c4ccc([nH]4)c(-c4c(F)c(F)cc(F)c4F)c4ccc2[nH]4)C=C3)c(F)c1F | > 50 µM | 1.91 µM | > 26.2 |  |  |  | IC50 (Human betaherpesvirus 5 [3]; [19]): 1.88 µM; selectivity ratio at 144 h [5]: 26.6 |
| Fc1cc(F)c(F)c(-c2c3nc(c4ccc([nH]4)c(-c4c(F)c(F)cc(F)c4F)c4ccc([nH]4)c(-c4cccnc4)c4ccc2[nH]4)C=C3)c1F | 12.8 µM | 1.1 µM | 11.6 |  |  |  |  |
| Fc1cc(-c2c3nc(c4ccc([nH]4)c(-c4cc(F)c(F)c(F)c4F)c4ccc([nH]4)c(-c4cc(F)c(F)c(F)c4F)c4ccc2[nH]4)C=C3)c(F)c(F)c1F | > 50 µM | 6.42 µM | > 7 |  |  |  | IC50 (Human betaherpesvirus 5 [6]): 3.71 µM; selectivity ratio at 144 h [7]: > 13 |
| O=[N+]([O-])c1cc(F)cc(-c2c3ccc([nH]3)c(-c3c(F)c(F)cc(F)c3F)c3nc(c4ccc([nH]4)c(-c4c(F)c(F)cc(F)c4F)c4ccc2[nH]4)C=C3)c1 | 50 µM |  |  | Not Active |  |  |  |
| O=S(=O)(O)CCNc1c(F)c(F)c(-c2c3nc(c4ccc([nH]4)c(-c4c(F)c(F)c(NCCS(=O)(=O)O)c(F)c4F)c4ccc([nH]4)c(-c4c(F)c(F)c(NCCS(=O)(=O)O)c(F)c4F)c4ccc2[nH]4)C=C3)c(F)c1F | > 50 µM |  |  | Not Active | > 50 µM | Not Active |  |
| COc1ccc(F)c(-c2c3nc(c4ccc([nH]4)c(-c4cc(OC)ccc4F)c4ccc([nH]4)c(-c4cc(OC)ccc4F)c4ccc2[nH]4)C=C3)c1 | > 50 µM |  |  | Not Active | > 50 µM | Not Active |  |
| Fc1cc(-c2c3ccc([nH]3)c(-c3c(F)c(F)cc(F)c3F)c3nc(c4ccc([nH]4)c(-c4c(F)c(F)cc(F)c4F)c4ccc2[nH]4)C=C3)ccn1 | 0.65 µM | 0.06 µM | 10.8 |  |  |  | IC50 (Human betaherpesvirus 5 [3]; [19]): 0.05 µM; selectivity ratio at 144 h [5]: 114 |
| Cc1ccc(F)c(-c2c3nc(c4ccc([nH]4)c(-c4cc(C)ccc4F)c4ccc([nH]4)c(-c4cc(C)ccc4F)c4ccc2[nH]4)C=C3)c1 | > 50 µM |  |  | Not Active | > 50 µM | Not Active |  |
| Fc1cc(F)c(F)c(-c2c3nc(c4ccc([nH]4)c(-c4c(F)c(F)cc(F)c4F)c4ccc([nH]4)c(-c4c(F)c(F)nc(F)c4F)c4ccc2[nH]4)C=C3)c1F | 3.4 µM | 0.09 µM | 37.8 |  |  |  | IC50 (Human betaherpesvirus 5 [3]; [19]): 0.05 µM; Activity (Human betaherpesvirus 5 [10]): Active; Activity (Human betaherpesvirus 5 [11]): Active; selectivity ratio at 144 h [5]: 450 |
| Fc1ccc(F)c(-c2c3nc(c4ccc([nH]4)c(-c4cc(F)ccc4F)c4ccc([nH]4)c(-c4cc(F)ccc4F)c4ccc2[nH]4)C=C3)c1 | > 50 µM |  |  | Not Active | > 50 µM | Not Active |  |
| Fc1ccccc1-c1c2nc(c3ccc([nH]3)c(-c3ccccc3F)c3ccc([nH]3)c(-c3ccccc3F)c3ccc1[nH]3)C=C2 | > 50 µM |  |  | Not Active | > 50 µM | Not Active |  |
| Fc1cc(-c2c3nc(c4ccc([nH]4)c(-c4cc(F)c(F)c(F)c4)c4ccc([nH]4)c(-c4cc(F)c(F)c(F)c4)c4ccc2[nH]4)C=C3)cc(F)c1F | > 50 µM | 6.3 µM | > 7 |  | > 50 µM | Not Active |  |
| O=[N+]([O-])c1cc(F)cc(-c2c3nc(c4ccc([nH]4)c(-c4cc(F)cc([N+](=O)[O-])c4)c4ccc([nH]4)c(-c4c(F)c(F)cc(F)c4F)c4ccc2[nH]4)C=C3)c1 | 36.7 µM |  |  | Not Active |  |  |  |
| Fc1cc(F)c(F)c(-c2c3ccc([nH]3)c(-c3c(F)c(F)c(F)c(F)c3F)c3nc(c4ccc([nH]4)c(-c4c(F)c(F)c(F)c(F)c4F)c4ccc2[nH]4)C=C3)c1F | 3.03 µM | 0.31 µM | 9.77 |  |  |  | IC50 (Human betaherpesvirus 5 [3]; [19]): 0.31 µM; selectivity ratio at 144 h [5]: 151 |
| Fc1cc(F)c(F)c(-c2c3nc(c4ccc([nH]4)c(-c4c(F)c(F)cc(F)c4F)c4ccc([nH]4)c(-c4ccccc4)c4ccc2[nH]4)C=C3)c1F | 22.3 µM | 6.6 µM | 3.38 |  |  |  |  |
| Fc1cc(F)c(-c2c3nc(c4ccc([nH]4)c(-c4c(F)cc(F)cc4F)c4ccc([nH]4)c(-c4c(F)cc(F)cc4F)c4ccc2[nH]4)C=C3)c(F)c1 | > 50 µM |  | > 9 |  | > 50 µM | Not Active | IC50 (Human betaherpesvirus 5 [12]): 5.57 µM |
| Fc1cc(F)cc(-c2c3nc(c4ccc([nH]4)c(-c4cc(F)cc(F)c4)c4ccc([nH]4)c(-c4cc(F)cc(F)c4)c4ccc2[nH]4)C=C3)c1 | > 50 µM |  |  | Not Active | > 50 µM | Not Active |  |
| O=[N+]([O-])c1ccc(-c2c3ccc([nH]3)c(-c3c(F)c(F)cc(F)c3F)c3nc(c4ccc([nH]4)c(-c4c(F)c(F)cc(F)c4F)c4ccc2[nH]4)C=C3)s1 | 4.17 µM | 0.27 µM | 15.6 |  |  |  | IC50 (Human betaherpesvirus 5 [13]): 0.13 µM; selectivity ratio at 144 h [14]: 385 |
| Fc1cc(F)c(F)c(-c2c3nc(c4ccc([nH]4)c(-c4cc(F)cc(F)c4F)c4ccc([nH]4)c(-c4cc(F)cc(F)c4F)c4ccc2[nH]4)C=C3)c1 | > 50 µM | 6 µM | > 7 |  | > 50 µM |  | IC50 (Human betaherpesvirus 5 [9]; [20]): 3.8 µM; Activity (Human betaherpesvirus 5 [15]): inactive; Activity (Human betaherpesvirus 5 [16]): inactive; Drug uptake [17]: Active |
| O=[N+]([O-])c1ccc(-c2c3ccc([nH]3)c(-c3c(F)c(F)cc(F)c3F)c3nc(c4ccc([nH]4)c(-c4c(F)c(F)cc(F)c4F)c4ccc2[nH]4)C=C3)c(C(F)(F)F)c1 | 11 µM | 2.45 µM | 4.49 |  |  |  | IC50 (Human betaherpesvirus 5 [3]; [19]): 0.33 µM; selectivity ratio at 144 h [5]: 18.6 |
| Fc1cc(-c2c3nc(c4ccc([nH]4)c(-c4ccnc(F)c4)c4ccc([nH]4)c(-c4ccnc(F)c4)c4ccc2[nH]4)C=C3)ccn1 | 6.25 µM | 0.46 µM | 13 |  | 6.17 µM |  | IC50 (Human betaherpesvirus 5 [9]; [20]): 0.15 µM |
| Fc1cc(F)c(F)c(-c2c3ccc([nH]3)c(-c3c(F)c(F)cc(F)c3F)c3nc(c4ccc([nH]4)c(-c4c(F)c(F)cc(F)c4F)c4ccc2[nH]4)C=C3)c1 | 21.5 µM | 1.16 µM | 18.5 |  |  |  | IC50 (Human betaherpesvirus 5 [3]; [19]): 0.5 µM; Drug uptake [17]: Active; selectivity ratio at 144 h [5]: 62 |

— ChEMBL document CHEMBL4699427, “A3- and A2B-fluorocorroles: synthesis, X-ray characterization and antiviral activity evaluation against human cytomegalovirus infection” (RSC Med Chem, 2020)
